Test results: the NIST ThermoML archive (doi:10.1021/je700290j)

Columns and labels:
[1] = for surface tension liquid-gas: Ring tensiometer; for mass density / viscosity / speed of sound: 101 kPa, Liquid; for speed of sound: Sing-around technique in a fixed-path interferometer
[2] = xn = mol fraction of the nth substance listed; details: 293.15 K; for surface tension liquid-gas: Ring tensiometer; for speed of sound / mass density / viscosity: 101 kPa, Liquid; for speed of sound: Sing-around technique in a fixed-path interferometer

C1CCNC1 [pyrrolidine]
[1]
Details	mass density [kg/m3]	speed of sound [m/s]	surface tension liquid-gas [mN/m]	viscosity [mPa·s]
293.15 K	863.81	1384.4	30.11	1.551
298.15 K	–	–	29.75	–

C1CCNC1 [pyrrolidine] + C1CCNCC1
[2]
Details	mass density [kg/m3]	speed of sound [m/s]	surface tension liquid-gas [mN/m]	viscosity [mPa·s]
x2 = 0	863.81	1384.4	30.11	1.551
x2 = 0.1043	863.61	1385.4	30.36	1.457
x2 = 0.2304	863.4	1386.3	30.61	1.364
x2 = 0.496	862.79	1388.2	30.56	1.201
x2 = 0.6423	862.19	1390.1	30.51	1.038
x2 = 0.7053	861.89	1390.8	30.47	0.9752
x2 = 0.8273	861.6	1391.5	30.42	0.9124

C1CCNCC1 [piperidine]
[1]
Details	mass density [kg/m3]	speed of sound [m/s]	surface tension liquid-gas [mN/m]	viscosity [mPa·s]
293.15 K	859.87	1389.4	30.27	0.8207
298.15 K	–	–	29.56	–

C1CCNCC1 [piperidine] + C1CCNC1
[2], x1 = 1
Details	mass density [kg/m3]	speed of sound [m/s]	surface tension liquid-gas [mN/m]	viscosity [mPa·s]
–	859.87	1389.4	30.27	0.8207
